The record followed here is patent US9260446B2, “Synthetic methods for spiro-oxindole compounds” (Xenon Pharmaceuticals Inc., priority 2009, dated 2016).

For the assay, the target named is hNav1.7 (Homo sapiens (Human), UniProt Q15858). The following applies: voltage-gated sodium channel blocking activity against hNav1.7.
Sequence of hNav1.7 (Q15858 whole entry): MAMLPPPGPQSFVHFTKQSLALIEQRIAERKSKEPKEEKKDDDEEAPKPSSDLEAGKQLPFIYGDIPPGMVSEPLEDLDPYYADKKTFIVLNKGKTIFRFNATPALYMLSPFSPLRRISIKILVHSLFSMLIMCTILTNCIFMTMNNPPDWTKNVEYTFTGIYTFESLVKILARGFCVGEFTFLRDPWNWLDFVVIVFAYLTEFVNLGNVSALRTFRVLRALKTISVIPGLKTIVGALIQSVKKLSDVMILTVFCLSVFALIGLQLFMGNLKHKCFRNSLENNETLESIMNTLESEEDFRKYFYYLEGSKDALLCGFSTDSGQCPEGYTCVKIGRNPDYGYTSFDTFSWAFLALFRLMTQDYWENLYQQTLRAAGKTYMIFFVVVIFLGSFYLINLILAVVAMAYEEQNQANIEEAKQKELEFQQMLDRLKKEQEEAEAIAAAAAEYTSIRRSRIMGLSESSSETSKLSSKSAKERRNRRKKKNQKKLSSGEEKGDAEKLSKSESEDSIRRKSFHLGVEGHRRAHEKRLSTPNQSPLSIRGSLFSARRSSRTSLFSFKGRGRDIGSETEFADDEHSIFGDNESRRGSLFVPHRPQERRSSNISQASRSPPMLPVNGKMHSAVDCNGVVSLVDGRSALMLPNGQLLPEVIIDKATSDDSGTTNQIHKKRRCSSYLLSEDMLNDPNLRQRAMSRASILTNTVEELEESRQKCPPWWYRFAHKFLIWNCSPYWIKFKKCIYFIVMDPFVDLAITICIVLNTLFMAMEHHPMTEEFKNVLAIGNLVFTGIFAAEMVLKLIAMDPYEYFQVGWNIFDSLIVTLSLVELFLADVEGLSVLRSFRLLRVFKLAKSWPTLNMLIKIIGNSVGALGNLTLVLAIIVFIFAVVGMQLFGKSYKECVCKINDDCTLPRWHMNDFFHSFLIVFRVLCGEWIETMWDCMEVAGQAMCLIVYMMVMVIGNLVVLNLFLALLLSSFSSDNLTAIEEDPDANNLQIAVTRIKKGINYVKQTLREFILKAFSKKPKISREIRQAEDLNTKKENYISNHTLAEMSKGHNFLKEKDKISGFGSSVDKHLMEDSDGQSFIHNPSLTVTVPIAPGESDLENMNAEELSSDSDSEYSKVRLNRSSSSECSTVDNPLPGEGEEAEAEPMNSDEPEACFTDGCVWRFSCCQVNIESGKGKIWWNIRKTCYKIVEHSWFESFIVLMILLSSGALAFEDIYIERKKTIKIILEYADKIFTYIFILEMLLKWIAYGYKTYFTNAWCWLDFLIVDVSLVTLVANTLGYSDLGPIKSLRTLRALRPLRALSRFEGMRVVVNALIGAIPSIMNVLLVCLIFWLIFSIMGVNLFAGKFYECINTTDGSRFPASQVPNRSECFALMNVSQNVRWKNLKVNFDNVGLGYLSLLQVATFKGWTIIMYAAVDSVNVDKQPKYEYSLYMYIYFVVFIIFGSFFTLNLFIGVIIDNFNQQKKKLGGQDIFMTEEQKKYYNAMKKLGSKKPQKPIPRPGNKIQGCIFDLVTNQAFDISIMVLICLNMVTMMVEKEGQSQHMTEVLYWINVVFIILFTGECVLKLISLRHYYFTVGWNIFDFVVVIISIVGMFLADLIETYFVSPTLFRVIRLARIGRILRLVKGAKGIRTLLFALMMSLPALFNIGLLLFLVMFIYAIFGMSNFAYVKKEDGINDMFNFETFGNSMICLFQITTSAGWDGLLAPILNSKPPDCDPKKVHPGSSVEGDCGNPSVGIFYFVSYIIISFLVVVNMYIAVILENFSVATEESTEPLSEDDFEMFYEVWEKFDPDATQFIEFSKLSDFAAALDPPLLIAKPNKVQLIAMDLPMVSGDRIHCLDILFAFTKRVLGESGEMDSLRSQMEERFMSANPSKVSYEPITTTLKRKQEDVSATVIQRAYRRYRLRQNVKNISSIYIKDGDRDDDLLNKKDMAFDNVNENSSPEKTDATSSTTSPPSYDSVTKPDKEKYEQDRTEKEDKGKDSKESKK
For orientation: IC50 means the point on the concentration scale where inhibition reaches its midpoint. High values mean weaker potency in that assay, low ones greater potency in that assay. Compound `O=C1N(Cc2ccc(C(F)(F)F)o2)c2ccccc2C12COc1cc3c(cc12)OCO3` (centres unmarked) [(I), 1′-{[5-(trifluoromethyl)-2-furyl]methyl}spiro[furo[2,3-f][1,3]benzodioxole-7,3′-indol]-2′(1′H)-one] gave a half-inhibitory concentration (IC50) of 7 nM.
As for `O=C1N(Cc2ccc(C(F)(F)F)o2)c2ccccc2[C@@]12COc1cc3c(cc12)OCO3` [(I-R), (R)-1′-{[5-(trifluoromethyl)furan-2-yl]methyl}spiro[furo[2,3-f][1,3]-benzodioxole-7,3′-indol]-2′(1′H)-one], the figure is 4200 nM.
The same measure for `O=C1N(Cc2ccc(C(F)(F)F)o2)c2ccccc2[C@]12COc1cc3c(cc12)OCO3` [(I-S), (S)-1′-{[5-(trifluoromethyl)furan-2-yl]methyl}spiro-[furo[2,3-f][1,3]benzodioxole-7,3′-indol]-2′(1′H)-one]: 3 nM; for `O=C1N(Cc2ncccc2C(F)(F)F)c2ccccc2C12COc1cc3c(cc12)OCCO3` (centres unmarked) [(II), 1′-{[3-(trifluoromethyl)pyridin-2-yl]methyl}-2,3-dihydrospiro[furo[2,3-g][1,4]benzodioxine-8,3′-indol]-2′(1′H)-one]: 15 nM.
In turn, `O=C1N(Cc2ncccc2C(F)(F)F)c2ccccc2[C@]12COc1cc3c(cc12)OCCO3` [(II-S), (S)-1′-{[3-(trifluoromethyl)pyridin-2-yl]methyl}-2,3-dihydrospiro[furo[2,3-g][1,4]benzodioxine-8,3′-indol]-2′(1′H)-one] registered an IC50 of 5 nM.
